{"source": "patent US20260137698A1", "about": "“CYCLIN-DEPENDENT KINASE 7 INHIBITORS” (JOINT STOCK COMPANY «BIOCAD», priority 2022, published 2026)", "key": {"CDK7/Cyclin H/MNAT1": {"target": "CDK7/Cyclin H/MNAT1 (Homo sapiens, UniProt P50613)", "sequence (P50613 whole entry)": "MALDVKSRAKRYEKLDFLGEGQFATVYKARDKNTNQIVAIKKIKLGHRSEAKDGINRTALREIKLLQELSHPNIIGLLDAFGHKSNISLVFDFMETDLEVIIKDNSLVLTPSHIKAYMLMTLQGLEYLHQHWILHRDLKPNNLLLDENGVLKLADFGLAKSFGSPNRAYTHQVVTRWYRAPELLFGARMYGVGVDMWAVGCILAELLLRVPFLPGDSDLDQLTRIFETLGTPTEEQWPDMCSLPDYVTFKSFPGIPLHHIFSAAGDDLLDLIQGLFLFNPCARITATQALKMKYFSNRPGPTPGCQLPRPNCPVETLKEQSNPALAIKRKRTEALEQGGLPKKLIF", "sequence (P51946 whole entry partner)": "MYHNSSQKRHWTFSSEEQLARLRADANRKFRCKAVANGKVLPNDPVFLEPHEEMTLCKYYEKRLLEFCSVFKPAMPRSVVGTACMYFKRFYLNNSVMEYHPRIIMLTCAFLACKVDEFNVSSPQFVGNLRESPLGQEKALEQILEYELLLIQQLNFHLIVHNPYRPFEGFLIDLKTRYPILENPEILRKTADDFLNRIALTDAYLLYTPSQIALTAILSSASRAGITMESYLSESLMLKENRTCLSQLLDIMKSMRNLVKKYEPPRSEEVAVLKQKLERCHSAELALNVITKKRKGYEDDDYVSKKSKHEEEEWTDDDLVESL", "sequence (P51948 whole entry partner)": "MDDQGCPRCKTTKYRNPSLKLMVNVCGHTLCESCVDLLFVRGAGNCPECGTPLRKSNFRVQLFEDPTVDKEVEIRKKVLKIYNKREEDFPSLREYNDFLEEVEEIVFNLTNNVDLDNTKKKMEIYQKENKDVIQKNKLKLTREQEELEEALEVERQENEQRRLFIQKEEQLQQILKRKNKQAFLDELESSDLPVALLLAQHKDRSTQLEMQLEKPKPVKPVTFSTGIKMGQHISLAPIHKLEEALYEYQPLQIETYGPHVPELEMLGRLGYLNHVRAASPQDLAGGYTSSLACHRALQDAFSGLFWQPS", "assay": "Inhibition of CDK7/Cyclin H/MNAT1 kinase activity (ADP-Glo)", "type": "biochemical", "in_short": "(§1)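 Kinase preincubated with compound (11 points, 4-fold steps from 50 μM) for 10 minutes at 25° C. in kinase buffer A with DTT, then reacted 40-60 minutes at 25° C. with ATP and CDKtide, Histone H1 or PDKtide substrate. ADP formation read by ADP-Glo luminescence; IC50 from four-parameter fit.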"}, "[1]": {"assay": "General cytotoxicity on primary differentiated HepaRG cells (72 h)", "type": "cell-based", "conditions": "human, general toxicity, mean value from several measurements", "in_short": "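Differentiated HepaRG cells, maintained a week in basal hepatic medium with maintenance/metabolism supplement, were plated at 25×10^3 cells/well overnight. Compounds (200 μM to 0.2 nM) were added for 72 h before viability readout.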"}, "[2]": {"assay": "Microsomal stability in mouse liver microsomes (MLM)", "type": "in vitro ADME", "conditions": "mouse liver microsomes 0.5 mg/ml, 1 μM compound, NADPH", "method": "The procedure for investigating the metabolism of selected compounds was carried out in microsomal fractions of the liver (of rats, mice, humans) in the presence of a phase I metabolism cofactor (NADPH).\nThe rate of enzymatic decomposition of the compound in liver microsomes in in vitro analysis was determined by keeping a reaction mixture comprising 0.5 mg/ml of pooled human, rat or mouse liver microsomes, 1 μM test compound, 1.5 mM […] (Carbosynth, UK, cat. no. NN108711101) and 1.5 mM magnesium chloride in 0.1 M sodium phosphate buffer (pH 7.4) in a solid-state thermostat at 37° C. (XenoTech, USA, order no. H2610, cat. no. R1000, cat. no. M1000). Incubation was carried out in three replicates.\nTo determine the stability of compounds under sample preparation conditions, an aliquot in two replicates with the test compound and a microsomal fraction devoid of the NADPH cofactor, which was incubated for 40 minutes at 37° C.\nReactions were stopped at 0, 10, 20, 30 and 40 min time points by way of adding an ice mixture of acetonitrile:methanol (3:1) comprising an internal standard.\nSamples were then centrifuged to remove the precipitated protein, supernatants were analyzed using HPLC-MS/MS to determine in vitro clearance (CLint) of the compounds. The Agilent 6410 mass spectrometer (Agilent, USA) combined with the Agilent 1260 Infinity II HPLC liquid chromatograph (Agilent, USA) and a cooling autosampler controlled by MassHunter software (Agilent, USA) was used as an HPLC-MS/MS system. Chromatographic analysis was performed on a C18 reversed-phase HPLC column (Agilent, Waters or equivalent) in a gradient elution mode in a system of mobile phases: 0.1% formic acid in water/0.1% formic acid in acetonitrile, flow rate: 0.5 ml/min, column T=35° C. Mass spectrometric detection was performed with electrospray ionization in multiple reaction monitoring mode. Precursor ions, fragment ions and collision energies for each substance were selected experimentally.\nA graph of dependence of the logarithmic ratio between substance's peak area and internal standard's peak area vs time was built. The dependent coefficient of this line corresponded to the elimination rate constant k, on the basis of which the in vitro clearance CLint was calculated:\nBased on resulting in vitro clearance CLint values, the microsomal stability of the selected compounds for humans, rats and mice was concluded."}, "[3]": {"assay": "Passive membrane permeability through PAMPA artificial membrane, pH 7.4", "type": "in vitro ADME", "conditions": "pH 7.4, 10 μmol, 20 hours at room temperature, mean of multiple measurements, read-out: PAMPA passive permeability Pe", "in_short": "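Compound at 10 μmol in 0.01 M phosphate buffer pH 7.4 placed in donor wells over lecithin-phospholipid-impregnated PVDF filter, buffer in acceptor; 20 h at room temperature. Donor and acceptor levels measured by RP-HPLC-UV; Pe (cm/s) and membrane retention R (%) calculated.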"}, "CDK9/Cyclin K": {"target": "CDK9/Cyclin K (Homo sapiens, UniProt P50750)", "sequence (P50750 whole entry)": "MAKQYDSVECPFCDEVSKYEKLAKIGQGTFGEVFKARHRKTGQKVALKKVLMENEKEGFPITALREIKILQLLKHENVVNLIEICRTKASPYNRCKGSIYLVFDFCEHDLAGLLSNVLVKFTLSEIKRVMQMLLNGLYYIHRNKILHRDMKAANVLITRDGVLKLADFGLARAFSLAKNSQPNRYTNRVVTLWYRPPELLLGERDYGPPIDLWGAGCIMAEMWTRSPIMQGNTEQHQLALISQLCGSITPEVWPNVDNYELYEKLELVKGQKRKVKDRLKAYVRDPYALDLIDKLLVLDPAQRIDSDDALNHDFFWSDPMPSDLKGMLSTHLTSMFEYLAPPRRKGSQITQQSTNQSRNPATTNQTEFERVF", "sequence (O75909 whole entry partner)": "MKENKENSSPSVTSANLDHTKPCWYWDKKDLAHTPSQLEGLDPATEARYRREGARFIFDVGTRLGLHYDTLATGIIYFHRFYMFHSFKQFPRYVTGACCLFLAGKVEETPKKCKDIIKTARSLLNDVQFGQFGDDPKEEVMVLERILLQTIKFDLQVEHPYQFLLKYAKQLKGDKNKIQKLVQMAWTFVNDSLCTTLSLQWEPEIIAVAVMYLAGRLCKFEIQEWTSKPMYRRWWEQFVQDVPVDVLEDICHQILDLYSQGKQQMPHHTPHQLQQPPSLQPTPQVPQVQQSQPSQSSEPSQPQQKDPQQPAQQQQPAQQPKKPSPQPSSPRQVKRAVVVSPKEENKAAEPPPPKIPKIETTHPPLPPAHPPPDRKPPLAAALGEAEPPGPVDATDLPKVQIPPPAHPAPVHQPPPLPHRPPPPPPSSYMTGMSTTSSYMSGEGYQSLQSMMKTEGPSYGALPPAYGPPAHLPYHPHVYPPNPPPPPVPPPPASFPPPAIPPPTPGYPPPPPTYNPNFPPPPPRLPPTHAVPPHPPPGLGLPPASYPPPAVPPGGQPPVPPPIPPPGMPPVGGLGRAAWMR", "assay": "Inhibition of CDK9/Cyclin K kinase activity (ADP-Glo)", "type": "biochemical", "in_short": "as §1"}}, "note": "Like-named read-outs stand apart in the source and are kept apart here.", "data": [{"smiles": "CC(C)N1CCCc2c(-c3nc(N[C@H]4CCC5(CC5)NC4)ncc3C(F)(F)F)c[nH]c2C1=O", "note": "[CDK7_1277, 3-(2-{[(6S)-4-azaspiro[2.5]octan-6-yl]amino}-5-(trifluoromethyl)py-rimidin-4-yl)-7-(propan-2-yl)-1H,4H,5H,6H,7H, 8H-pyrrolo[2,3-c]azepin-8-one]", "values": [{"measurement": "IC50", "setting": "CDK7/Cyclin H/MNAT1; mean of multiple measurement series, ATP 10 μM, read-out: CDK7/Cyclin H/MNAT1 IC50", "value": "< 5", "unit": "nM"}, {"measurement": "IC50", "setting": "CDK7/Cyclin H/MNAT1; mean value from several measurements, read-out: IC50 CDK7/Cyclin H/MNAT", "value": "< 5", "unit": "nM"}, {"measurement": "CC50 at 72 h", "setting": "[1]", "value": "> 2000", "unit": "nM"}, {"measurement": "MLM Clint", "setting": "[2]", "value": "B (50 μl/(min · mg of protein) > Clint > 20 μl/(min · mg of protein))"}, {"measurement": "Papp at 20 h, 10 μmol", "setting": "[3]", "value": "5 to 10", "unit": "×10⁻⁶ cm/s"}, {"measurement": "IC50", "setting": "CDK9/Cyclin K; mean of multiple measurement series, ATP 50 μM, read-out: CDK9/Cyclin K IC50", "value": 442, "unit": "nM"}, {"measurement": "IC50", "setting": "CDK9/Cyclin K; mean value from several measurements, read-out: IC50 CDK9/Cyclin K", "value": "> 200", "unit": "nM"}]}]}
